Reference: the SangsterLogP compilation

Tests used:
[1] = method code SF-AS, from DOI: 10.1039/ft9959100995
[2] = method code SF, from DOI: 10.1248/yakushi1947.93.11_1452, PMID: 4273378
[3] = method code SF-HPLC, from DOI: 10.1016/0378-5173(90)90184-6; details: pH 4.0
[4] = method code SF-NMR, from DOI: 10.1016/j.jpba.2012.12.010, PMID: 23298914; details: pH 6.7
[5] = method code SF-GLC, from DOI: 10.1021/es60128a001
[6] = method code SF-GLC, from DOI: 10.1016/j.chemosphere.2005.05.003, PMID: 15967478
[7] = method code SF-AS, from DOI: 10.1021/bi00405a042
[8] = method code SF-AS, from DOI: 10.1016/0005-2736(69)90054-6, PMID: 5349616; details: pH 7.4
[9] = not given; remark: listed apart in the source
[10] = method code SF-HPLC, from DOI: 10.1016/j.ejps.2015.05.008, PMID: 25968358; details: pH 7.4
[11] = not given; remark: listed apart in the source
[12] = method code SF-AS, from Lippold, B.; Lichey, J. (1984). Transport of drugs through lipophilic polymer membranes. II. Influence of the partition and diffusion coefficients. Acta pharmaceutica technologica, 30(2)140-154.
[13] = not given; remark: listed apart in the source
[14] = method code SF, from DOI: 10.1038/bjc.1982.190, PMID: 7150475; details: pH 7.4
[15] = not given; remark: listed apart in the source
[16] = not given; remark: listed apart in the source
[17] = not given; remark: listed apart in the source
[18] = method code SF-AS, from DOI: 10.1021/jm00051a006, PMID: 7996541
[19] = method code SF-AS, from DOI: 10.1021/acs.inorgchem.5b01238, PMID: 26280387
[20] = method code SF-AS, from DOI: 10.1016/s0003-2670(01)80868-0
[21] = not given; remark: listed apart in the source
[22] = method code SF-GLC, from DOI: 10.1021/jm00366a019, PMID: 6644745; details: pH 13.0
[23] = method code SF-HPLC, from DOI: 10.1021/jm9509197, PMID: 8648601; details: pH 7.4
[24] = method code SF-HPLC, from DOI: 10.1177/074823378700300403, PMID: 3433285
[25] = method code SF-AS, from DOI: 10.1007/bf02273190
[26] = method code SF-AS, from DOI: 10.1016/0006-2952(81)90362-2, PMID: 7271838; details: pH 7.5
[27] = method code SF, from DOI: 10.1021/js9700917, PMID: 9452977; details: pH 5.5
[28] = not given; remark: listed apart in the source
[29] = method code SF-HPLC, from DOI: 10.1016/0168-3659(92)90067-2

SMILES: CC(=O)OCCOCn1cnc2c(=O)[nH]c(N)nc21
- logP [1]: -1.07

SMILES: CCCCNC(=O)c1cccnc1
- logP [2]: 0.9

SMILES: CCCCCCCCNC(=O)n1cc(F)c(=O)[nH]c1=O
- logD [3]: 3.9

SMILES: COC(=O)[C@@H](N)Cc1cc(I)c(O)c(I)c1
- logD [4]: 0.95

SMILES: CCOP(=S)(OCC)SCn1c(=O)oc2cc(Cl)ccc21
- logP [5]: 4.3

SMILES: C=C1CCC2CC1C2(C)C (configuration not stated)
- logP [6]: 4.43

SMILES: CC(=O)NCCc1c[nH]c2ccccc12
- logP [7]: 1.41

SMILES: C=Cc1ccc(C=C)cc1
- logP: 3.2

SMILES: c1ccc2c(c1)[nH]c1ccccc12
- logD [8]: 3.29

SMILES: COC(=O)c1ccccc1C(=O)OC
- logP [9]: 1.9

SMILES: CCCCC(=O)c1ccccc1
- logD [10]: 3.03

SMILES: Nc1ccc2c(S(=O)(=O)O)cc(S(=O)(=O)O)cc2c1
- logP [11]: -1.6

SMILES: O=S(=O)(O)c1ccc(-c2ccc(S(=O)(=O)O)cc2)cc1
- logP [11]: 0.3

SMILES: CC(C1=C(CCN(C)C)Cc2ccccc21)c1ccccn1 (configuration not stated)
- logP [12]: 2.7

SMILES: CCCCCCOC(=O)c1ccccc1C(=O)OCCCCCC
- logP [9]: 5.8

SMILES: CC(C)(N)Cc1ccccc1
- logP [13]: 1.9

SMILES: CCCCOCC(O)Cn1ccnc1[N+](=O)[O-] (configuration not stated)
- logD [14]: 1.11

SMILES: Clc1cc(Cl)c2oc3c(Cl)c(Cl)c(Cl)c(Cl)c3c2c1Cl
- logP [15]: 7.93

SMILES: CC(C)(N)Cc1ccc(Cl)cc1
- logP [13]: 2.6

SMILES: Cc1cc2ccccc2n1C
- logD [8]: 2.82

SMILES: Cc1cn([C@H]2C[C@H](N=[N+]=[N-])[C@@H](CO)O2)c(=O)[nH]c1=O
- logP [16]: -0.09

SMILES: O=C(O)c1ccc2ccccc2c1
- logP [17]: 3.1

SMILES: CO[C@H]1N([C@H]2C[C@H](N=[N+]=[N-])[C@@H](CO)O2)C(=O)NC(=O)[C@@]1(C)Cl
- logP [18]: 0.52

SMILES: CCSC(=S)C=C(O)c1ccccc1
- logP [19]: 1.93

SMILES: CO[C@@H]1N([C@H]2C[C@H](N=[N+]=[N-])[C@@H](CO)O2)C(=O)NC(=O)[C@@]1(C)Br
- logP [18]: 1.22

SMILES: CCCCCC(=O)CC(=O)CCCCC
- logP [20]: 4.88

SMILES: Cc1cc(Cl)ccc1OCCCC(=O)O
- logP [21]: 3.28

SMILES: CNC1CC2c3ccccc3C1C2O (configuration not stated)
- logD [22]: 0.91

SMILES: O=C(C(=O)c1ccc(Cl)cc1)c1ccccc1
- logP: 2.6

SMILES: CCSC(=S)C=C(O)c1ccc(O)cc1
- logP [19]: 1.97

SMILES: Nc1c2ncn(C3OC(CO)CC3F)c2nc[n+]1[O-] (configuration not stated)
- logD [23]: -0.98

SMILES: COP(=S)(OC)SCn1nnc2ccccc2c1=O
- logP [24]: 2.43

SMILES: CCC(=O)N(C)c1ccc(S(=O)(=O)N(C)C)cc1
- logP [25]: 0.71

SMILES: CCCCOC(=O)c1ccc(O)cc1
- logD [26]: 3.32

SMILES: Cc1nc(NS(=O)(=O)c2ccc(N)cc2)oc1C
- logD [27]: 0.2

SMILES: Brc1ccc(-c2ccccc2)c(Br)c1
- logP [28]: 5.53

SMILES: CC(=O)NC(Cc1ccc(O)cc1)C(N)=O (configuration not stated)
- logP [29]: -0.7
